# Measurements: ChEMBL document CHEMBL5512688 (J Med Chem, 2024)
# System: not listed separately
# Assay: Volume of distribution in ICR mouse at 1 mg/kg, iv measured upto 24 hrs by LC-MS/MS analysis
# Format: ADME, organism-based
# Conditions: in vivo
row,Compound,Vd [L/kg]
1,C=CCn1c(=O)c2cnc(Nc3ccc(N4CCN(C)CC4)cc3)nc2n1-c1cccc(-c2cccnn2)n1,11.7
2,C=CCn1c(=O)c2cnc(Nc3ccc(N4C[C@@H](C)N[C@@H](C)C4)cc3)nc2n1-c1cccc(-c2cccnn2)n1,20.3

# System: not listed separately
# Assay: Metabolic stability in mouse liver microsome assessed as parent compound remaining measured at 60 mins by LCMS/MS analysis
# Format: ADME
# Conditions: liver microsomes, read-out: Stability
row,Compound,remaining at 1 h [%]
1,C=CCn1c(=O)c2cnc(Nc3ccc(N4CCN(CCN(C)C)CC4)cc3)nc2n1-c1cccc(-c2cnccn2)n1,56.9
2,C=CCn1c(=O)c2cnc(Nc3ccc(N4C5CCC4CN(C)C5)cc3)nc2n1-c1cccc(-c2cccnn2)n1,23.8
3,C=CCn1c(=O)c2cnc(Nc3ccc(N4C[C@@H](C)N[C@@H](C)C4)cc3)nc2n1-c1cccc(-c2cccnn2)n1,87.1

# Next, values leading:
row,remaining at 1 h [%],Compound
1,65.8,C=CCn1c(=O)c2cnc(Nc3ccc4c(c3)CNCC4)nc2n1-c1cccc(-c2ncccn2)n1
2,55.1,C=CCn1c(=O)c2cnc(Nc3ccc(N4CCN(C)CC4)cc3)nc2n1-c1cccc(-c2cccnn2)n1

# System: not listed separately
# Assay: Bioavailability in ICR mouse at 60 mg/kg, IG measured upto 24 hrs by LC-MS/MS analysis
# Format: ADME, organism-based
# Conditions: in vivo, po
row,Compound,bioavailability [%]
1,C=CCn1c(=O)c2cnc(Nc3ccc(N4CCN(C)CC4)cc3)nc2n1-c1cccc(-c2cccnn2)n1,41.9
2,C=CCn1c(=O)c2cnc(Nc3ccc(N4C[C@@H](C)N[C@@H](C)C4)cc3)nc2n1-c1cccc(-c2cccnn2)n1,0.4

# System: A-427
# Assay: Antiproliferative activity against human A-427 cells assessed as inhibition of cell growth incubated for 72 hrs by CCK-8 assay
# Format: functional, cell-based
# Conditions: A-427, 72 h
row,Compound,IC50 [nM]
1,C=CCn1c(=O)c2cnc(Nc3ccc4c(c3)CNCC4)nc2n1-c1cccc(-c2ncccn2)n1,283
2,C=CCn1c(=O)c2cnc(Nc3ccc(N4CCN(CCN(C)C)CC4)cc3)nc2n1-c1cccc(-c2cnccn2)n1,238
3,C=CCn1c(=O)c2cnc(Nc3ccc(N4C5CCC4CN(C)C5)cc3)nc2n1-c1cccc(-c2cccnn2)n1,226
4,C=CCn1c(=O)c2cnc(Nc3ccc(N4CCN(C)CC4)cc3)nc2n1-c1cccc(-c2cccnn2)n1,206
5,C=CCn1c(=O)c2cnc(Nc3ccc(N4C[C@@H](C)N[C@@H](C)C4)cc3)nc2n1-c1cccc(-c2cccnn2)n1,240

# System: not listed separately
# Assay: Half life in ICR mouse at 1 mg/kg, iv measured upto 24 hrs by LC-MS/MS analysis
# Format: ADME, organism-based
# Conditions: in vivo
row,Compound,half-life [h]
1,C=CCn1c(=O)c2cnc(Nc3ccc(N4CCN(C)CC4)cc3)nc2n1-c1cccc(-c2cccnn2)n1,2.45
2,C=CCn1c(=O)c2cnc(Nc3ccc(N4C[C@@H](C)N[C@@H](C)C4)cc3)nc2n1-c1cccc(-c2cccnn2)n1,1.56

# Target: Wee1-like protein kinase (Homo sapiens, UniProt P30291)
# Sequence (P30291 whole entry, the tested form may be a part): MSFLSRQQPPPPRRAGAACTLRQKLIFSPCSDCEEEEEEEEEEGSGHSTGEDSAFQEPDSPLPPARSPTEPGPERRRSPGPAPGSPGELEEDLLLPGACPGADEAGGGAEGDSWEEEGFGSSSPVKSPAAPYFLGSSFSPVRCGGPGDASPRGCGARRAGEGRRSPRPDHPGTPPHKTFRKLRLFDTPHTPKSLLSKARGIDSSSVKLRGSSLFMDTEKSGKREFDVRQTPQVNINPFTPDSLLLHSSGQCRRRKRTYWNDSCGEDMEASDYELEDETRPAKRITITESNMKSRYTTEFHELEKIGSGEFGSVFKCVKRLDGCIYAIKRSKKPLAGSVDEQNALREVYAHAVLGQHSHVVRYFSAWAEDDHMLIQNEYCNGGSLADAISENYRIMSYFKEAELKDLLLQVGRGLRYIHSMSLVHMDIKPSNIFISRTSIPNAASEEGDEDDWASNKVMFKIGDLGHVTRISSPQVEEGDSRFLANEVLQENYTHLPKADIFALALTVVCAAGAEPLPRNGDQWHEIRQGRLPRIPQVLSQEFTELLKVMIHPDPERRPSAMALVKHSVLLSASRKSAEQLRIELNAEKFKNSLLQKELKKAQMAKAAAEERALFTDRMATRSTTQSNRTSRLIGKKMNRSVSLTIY
# Assay: Inhibition of human Wee1 (215 to 647 residues) using polyornithine/tyrosine (4:1) as substrate incubated for 5 mins in presence of ATP by micro beta plate reader analysis
# Conditions: not given
row,Compound,IC50 [nM]
1,C=CCn1c(=O)c2cnc(Nc3ccc(N4CCN(CCN(C)C)CC4)cc3)nc2n1-c1cccc(-c2cnccn2)n1,3.1
2,C=CCn1c(=O)c2cnc(Nc3ccc(N4C5CCC4CN(C)C5)cc3)nc2n1-c1cccc(-c2cccnn2)n1,3
3,C=CCn1c(=O)c2cnc(Nc3ccc(N4C[C@@H](C)N[C@@H](C)C4)cc3)nc2n1-c1cccc(-c2cccnn2)n1,2.1

# Results, then the compound that gave them:
row,IC50 [nM],Compound
1,1.4,C=CCn1c(=O)c2cnc(Nc3ccc4c(c3)CNCC4)nc2n1-c1cccc(-c2ncccn2)n1
2,2,C=CCn1c(=O)c2cnc(Nc3ccc(N4CCN(C)CC4)cc3)nc2n1-c1cccc(-c2cccnn2)n1

# System: not listed separately
# Assay: Half life in ICR mouse at 60 mg/kg, IG measured upto 24 hrs by LC-MS/MS analysis
# Format: ADME, organism-based
# Conditions: in vivo, po
row,Compound,half-life [h]
1,C=CCn1c(=O)c2cnc(Nc3ccc(N4CCN(C)CC4)cc3)nc2n1-c1cccc(-c2cccnn2)n1,8.65

# System: not listed separately
# Assay: AUC (0 to 24 hrs) in ICR mouse at 1 mg/kg, iv measured upto 24 hrs by LC-MS/MS analysis
# Format: ADME, organism-based
# Conditions: in vivo
row,Compound,AUC(0-t) at 24 h [ng·h/mL]
1,C=CCn1c(=O)c2cnc(Nc3ccc(N4CCN(C)CC4)cc3)nc2n1-c1cccc(-c2cccnn2)n1,170
2,C=CCn1c(=O)c2cnc(Nc3ccc(N4C[C@@H](C)N[C@@H](C)C4)cc3)nc2n1-c1cccc(-c2cccnn2)n1,86.7

# System: not listed separately
# Assay: AUC (0 to 24 hrs) in ICR mouse at 60 mg/kg, IG measured upto 24 hrs by LC-MS/MS analysis
# Format: ADME, organism-based
# Conditions: in vivo, po
row,Compound,AUC(0-t) at 24 h [ng·h/mL]
1,C=CCn1c(=O)c2cnc(Nc3ccc(N4CCN(C)CC4)cc3)nc2n1-c1cccc(-c2cccnn2)n1,4270
2,C=CCn1c(=O)c2cnc(Nc3ccc(N4C[C@@H](C)N[C@@H](C)C4)cc3)nc2n1-c1cccc(-c2cccnn2)n1,20.8

# System: not listed separately
# Assay: Clearance in ICR mouse at 1 mg/kg, iv measured upto 24 hrs by LC-MS/MS analysis
# Format: ADME, organism-based
# Conditions: in vivo
row,Compound,clearance [mL/min/kg]
1,C=CCn1c(=O)c2cnc(Nc3ccc(N4CCN(C)CC4)cc3)nc2n1-c1cccc(-c2cccnn2)n1,88.2
2,C=CCn1c(=O)c2cnc(Nc3ccc(N4C[C@@H](C)N[C@@H](C)C4)cc3)nc2n1-c1cccc(-c2cccnn2)n1,178

# System: not listed separately
# Assay: Metabolic stability in human liver microsome assessed as parent compound remaining measured at 60 mins by LCMS/MS analysis
# Format: ADME
# Conditions: liver microsomes, read-out: Stability
row,Compound,remaining at 1 h [%]
1,C=CCn1c(=O)c2cnc(Nc3ccc(N4CCN(CCN(C)C)CC4)cc3)nc2n1-c1cccc(-c2cnccn2)n1,67.2
2,C=CCn1c(=O)c2cnc(Nc3ccc(N4C5CCC4CN(C)C5)cc3)nc2n1-c1cccc(-c2cccnn2)n1,28.6
3,C=CCn1c(=O)c2cnc(Nc3ccc(N4C[C@@H](C)N[C@@H](C)C4)cc3)nc2n1-c1cccc(-c2cccnn2)n1,74.1

# The remaining lines, values ahead:
row,remaining at 1 h [%],Compound
1,81,C=CCn1c(=O)c2cnc(Nc3ccc4c(c3)CNCC4)nc2n1-c1cccc(-c2ncccn2)n1
2,46.5,C=CCn1c(=O)c2cnc(Nc3ccc(N4CCN(C)CC4)cc3)nc2n1-c1cccc(-c2cccnn2)n1
